Experimental data reported in article PMC6532841 (PLoS Genetics, 2019).

Tests used:
Assay in all cases: cAMP inhibition assay (ALPHAScreen), transfected CHO-K1
Format in all cases: cell-based
[1] = target: T1, orangutan HCA2 (Pongo abelii, UniProt A0A8I5YUU0)
T1 construct: gene HCAR2; full-length, HA/FLAG tags, CHO-K1
Source text: cAMP inhibition assay (ALPHAScreen), transfected CHO-K1 on orangutan HCA2

[2] = target: T2, mouse HCA2 (Mus musculus, UniProt Q9EP66)
T2 construct: gene Hcar2; full-length, N-terminal HA and C-terminal FLAG tag, CHO-K1
T2 sequence (Q9EP66 whole entry): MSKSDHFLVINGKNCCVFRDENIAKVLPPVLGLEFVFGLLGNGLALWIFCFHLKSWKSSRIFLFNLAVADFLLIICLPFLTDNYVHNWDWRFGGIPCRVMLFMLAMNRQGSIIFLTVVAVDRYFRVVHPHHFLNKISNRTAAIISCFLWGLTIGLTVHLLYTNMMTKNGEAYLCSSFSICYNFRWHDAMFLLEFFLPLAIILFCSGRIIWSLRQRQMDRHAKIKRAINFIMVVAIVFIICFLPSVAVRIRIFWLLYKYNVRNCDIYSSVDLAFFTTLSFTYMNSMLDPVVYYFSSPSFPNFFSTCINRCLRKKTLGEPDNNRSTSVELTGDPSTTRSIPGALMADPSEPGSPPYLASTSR
Source text: cAMP inhibition assay (ALPHAScreen), transfected CHO-K1 on mouse HCA2

[3] = target: T3, human HCA2 (Homo sapiens, UniProt Q8TDS4); settings: read-out: HCA3 / Basal cAMP (% of mock-transfected)
T3 construct: gene HCAR2; full-length, N-terminal HA and C-terminal FLAG tag, pcDps, transient in CHO-K1
T3 sequence (Q8TDS4 whole entry): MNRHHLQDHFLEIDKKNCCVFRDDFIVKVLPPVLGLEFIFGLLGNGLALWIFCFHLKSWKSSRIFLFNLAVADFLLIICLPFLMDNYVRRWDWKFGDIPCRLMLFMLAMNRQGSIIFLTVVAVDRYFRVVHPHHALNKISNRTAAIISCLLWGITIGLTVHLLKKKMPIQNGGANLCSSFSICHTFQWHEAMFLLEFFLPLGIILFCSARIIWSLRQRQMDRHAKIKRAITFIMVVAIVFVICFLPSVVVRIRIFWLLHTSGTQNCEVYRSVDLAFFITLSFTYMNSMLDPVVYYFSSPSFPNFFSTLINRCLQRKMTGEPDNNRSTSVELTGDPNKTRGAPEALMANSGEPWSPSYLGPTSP
Source text: cAMP inhibition assay (ALPHAScreen), transfected CHO-K1 on human HCA2

[4] = target: T4, siamang HCA3 (Symphalangus syndactylus, UniProt Z9POU2MJD9); settings: read-out: EC50 (μM) (95% CI)
T4 construct: full-length, HA/FLAG tags, CHO-K1
Source text: cAMP inhibition assay (ALPHAScreen), transfected CHO-K1 on siamang HCA3

[5] = target: T5, orangutan HCA3 (Pongo pygmaeus, UniProt A0A4Y1JWR4); settings: read-out: EC50 (μM) (95% CI)
T5 construct: gene HCAR3; full-length, HA/FLAG tags, CHO-K1
T5 sequence (A0A4Y1JWR4 1-363): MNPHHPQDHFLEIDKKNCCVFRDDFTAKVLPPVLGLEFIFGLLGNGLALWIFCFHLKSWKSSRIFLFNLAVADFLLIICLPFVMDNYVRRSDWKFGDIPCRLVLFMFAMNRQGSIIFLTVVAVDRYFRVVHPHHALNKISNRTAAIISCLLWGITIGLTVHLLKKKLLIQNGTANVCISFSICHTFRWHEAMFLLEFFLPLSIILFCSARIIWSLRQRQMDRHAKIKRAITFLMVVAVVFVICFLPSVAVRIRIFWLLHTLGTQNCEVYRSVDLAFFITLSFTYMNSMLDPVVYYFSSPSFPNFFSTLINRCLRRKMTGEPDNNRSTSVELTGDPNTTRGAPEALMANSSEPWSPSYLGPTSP
Source text: cAMP inhibition assay (ALPHAScreen), transfected CHO-K1 on orangutan HCA3

[6] = target: T6, chimpanzee HCA3 (Pan troglodytes, UniProt A0A2J8MD62); settings: agonist; 2 μM forskolin; HBSS
T6 construct: gene HCAR3; full-length, HA/FLAG tags, CHO-K1
Source text: cAMP inhibition assay (ALPHAScreen), transfected CHO-K1 on chimpanzee HCA3

[7] = target: T7, human HCA3 (Homo sapiens, UniProt P49019); settings: read-out: EC50 (μM) (95% CI)
T7 construct: gene HCAR3; full-length, N-terminal HA and C-terminal FLAG tag, pcDps, transient in CHO-K1
T7 sequence (P49019 whole entry): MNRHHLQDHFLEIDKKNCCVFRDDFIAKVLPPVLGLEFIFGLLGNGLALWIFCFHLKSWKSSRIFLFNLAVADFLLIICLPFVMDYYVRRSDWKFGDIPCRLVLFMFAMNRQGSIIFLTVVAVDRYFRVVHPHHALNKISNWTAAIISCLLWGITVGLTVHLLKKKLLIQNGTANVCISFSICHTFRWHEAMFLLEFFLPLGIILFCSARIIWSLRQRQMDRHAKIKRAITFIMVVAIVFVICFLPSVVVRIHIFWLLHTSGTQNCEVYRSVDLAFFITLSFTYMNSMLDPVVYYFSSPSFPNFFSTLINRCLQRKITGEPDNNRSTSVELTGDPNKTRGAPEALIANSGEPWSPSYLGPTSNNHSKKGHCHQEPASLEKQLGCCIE
Source text: cAMP inhibition assay (ALPHAScreen), transfected CHO-K1 on human HCA3

[8] = target: T8, chimpanzee HCA1 (Pan troglodytes, UniProt A0A2I3T0E0)
T8 construct: gene HCAR1; full-length, HA/FLAG tags, CHO-K1
T8 sequence (A0A2I3T0E0 1-346): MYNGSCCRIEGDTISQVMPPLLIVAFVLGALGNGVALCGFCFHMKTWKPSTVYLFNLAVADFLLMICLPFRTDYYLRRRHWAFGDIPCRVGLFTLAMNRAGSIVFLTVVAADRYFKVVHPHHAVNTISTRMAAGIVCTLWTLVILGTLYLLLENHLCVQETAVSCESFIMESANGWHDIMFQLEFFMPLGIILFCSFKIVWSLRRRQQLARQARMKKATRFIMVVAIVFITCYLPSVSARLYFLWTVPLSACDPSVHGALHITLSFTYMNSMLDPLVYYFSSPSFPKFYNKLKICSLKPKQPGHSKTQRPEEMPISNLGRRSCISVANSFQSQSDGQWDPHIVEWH
Source text: cAMP inhibition assay (ALPHAScreen), transfected CHO-K1 on chimpanzee HCA1

[9] = target: T9, mouse HCA1 (Mus musculus, UniProt Q8C131)
T9 construct: gene Hcar1; full-length, N-terminal HA and C-terminal FLAG tag, CHO-K1
T9 sequence (Q8C131 1-343): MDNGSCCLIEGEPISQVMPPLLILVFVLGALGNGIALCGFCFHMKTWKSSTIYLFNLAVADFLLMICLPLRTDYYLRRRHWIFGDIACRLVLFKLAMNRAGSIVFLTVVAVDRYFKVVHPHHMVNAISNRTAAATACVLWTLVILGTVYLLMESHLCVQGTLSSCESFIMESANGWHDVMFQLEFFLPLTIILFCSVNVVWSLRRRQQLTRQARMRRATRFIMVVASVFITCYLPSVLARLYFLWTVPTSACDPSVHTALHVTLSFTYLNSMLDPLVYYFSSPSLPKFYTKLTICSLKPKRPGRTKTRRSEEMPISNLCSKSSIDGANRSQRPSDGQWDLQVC
Source text: cAMP inhibition assay (ALPHAScreen), transfected CHO-K1 on mouse HCA1

[10] = target: T10, human HCA1 (Homo sapiens, UniProt Q9BXC0); settings: read-out: HCA2 / Basal cAMP (% of mock-transfected)
T10 construct: gene HCAR1; full-length, N-terminal HA and C-terminal FLAG tag, pcDps, transient in CHO-K1
T10 sequence (Q9BXC0 whole entry): as the sequence (A0A2I3T0E0 1-346) above, with M131V, T141A, L148V, L249S counted along it
Source text: cAMP inhibition assay (ALPHAScreen), transfected CHO-K1 on human HCA1

[11] = target: T11, gorilla HCA1 (Gorilla gorilla, UniProt A0A2I2YNR0)
T11 construct: gene HCAR1; full-length, HA/FLAG tags, CHO-K1
T11 sequence (A0A2I2YNR0 1-346): as the sequence (A0A2I3T0E0 1-346) above, with I23V, L249S counted along it
Source text: cAMP inhibition assay (ALPHAScreen), transfected CHO-K1 on gorilla HCA1

T1 sequence (A0A8I5YUU0 1-363): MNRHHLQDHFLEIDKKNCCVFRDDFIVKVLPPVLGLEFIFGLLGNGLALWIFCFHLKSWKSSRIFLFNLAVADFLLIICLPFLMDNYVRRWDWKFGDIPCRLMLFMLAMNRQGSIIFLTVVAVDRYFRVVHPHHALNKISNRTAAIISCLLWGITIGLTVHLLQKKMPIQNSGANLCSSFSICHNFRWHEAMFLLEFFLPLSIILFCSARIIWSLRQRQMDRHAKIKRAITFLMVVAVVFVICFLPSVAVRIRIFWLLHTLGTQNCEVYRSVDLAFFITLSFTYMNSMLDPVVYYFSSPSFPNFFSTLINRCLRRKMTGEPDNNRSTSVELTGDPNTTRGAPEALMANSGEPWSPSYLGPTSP

Question: What does the source list for `C[C@@H](O)CC(=O)O` [D-3HB]?
Answer: EC50 [1]: 680 µM; EC50 [2]: 1030 µM; EC50 [3]: 530 µM

Question: What does the source list for `O=C(O)[C@H](O)Cc1ccccc1` [D-PLA]?
Answer: EC50 [4]: 0.28 µM; EC50 [5]: 1.2 µM; EC50 (μM) (95% CI) [6]: 0.13 (0.08–0. 22) μM; EC50 [7]: 0.15 µM

Question: Which EC50 [8] does the source give for `C[C@H](O)C(=O)O` [L-lactate] here?
Answer: The EC50 was 4100 µM.

Question: What about the EC50 [9] of the same molecule?
Answer: The EC50 was 2900 µM.

Question: And the EC50 [10]?
Answer: Its EC50 is 2400 µM.

Question: And the EC50 [11]?
Answer: The EC50 was 2300 µM.
